# Laboratory results as given in patent US5736510A, “Antibiotics 10381v, w, x,y, z1, z2, pre-b and t” (priority 1996, dated 1998).
# Read-outs that look alike come from different tables or passages of the source.
# Tests used:
# Type in all cases: cell-based
# [1] = system: F. necrophorum; conditions: for M.I.C.: Table III, mass basis, no correction for purity; for Minimal Inhibitory Concentration (bioactivity data): Table IV (separate study)
# [2] = system: B. fragilis; conditions: strain UC9370; for Minimal Inhibitory Concentration (bioactivity data): Table IV (separate study)
# [3] = system: C. perfringens; design: Minimal Inhibitory Concentration (bioactivity data): unit not given here; conditions: for M.I.C.: Table III, mass basis, no correction for purity; for Minimal Inhibitory Concentration (bioactivity data): Table IV (separate study)
# [4] = system: P. ruminicola; conditions: strain 118B; for Minimal Inhibitory Concentration (bioactivity data): Table IV (separate study)
# [5] = system: R. flavefaciens; conditions: for M.I.C.: Table III, mass basis, no correction for purity; for Minimal Inhibitory Concentration (bioactivity data): Table IV (separate study)
# [6] = system: S. bovis; conditions: strain JB1; for Minimal Inhibitory Concentration (bioactivity data): Table IV (separate study)
# [7] = system: S. ruminantium; conditions: for M.I.C.: Table III, mass basis, no correction for purity; for Minimal Inhibitory Concentration (bioactivity data): Table IV (separate study)
# [8] = system: M. elsdenii; conditions: strain B159; for Minimal Inhibitory Concentration (bioactivity data): Table IV (separate study)
# [9] = system: E. lentum; conditions: strain L-34; Table IV (separate study)
# [10] = system: E. ruminantium; conditions: strain GA195; Table III; mass basis, no correction for purity
# [11] = system: S. faecalis; conditions: for M.I.C.: Table III, mass basis, no correction for purity; for Minimal Inhibitory Concentration (bioactivity data): Table IV (separate study)
# [12] = system: L. multiparus; conditions: strain 40; for Minimal Inhibitory Concentration (bioactivity data): Table IV (separate study)
# [13] = system: anaerobic bacteria which normally inhabit the gut of poultry, swine or cattle; assay: in vitro MIC assay, overall comparison of components across the test organisms; conditions: conclusion from Tables III and IV
# Protocol: (§1) The assay measures the ability of a compound to inhibit the growth of certain types of anaerobic bacteria which normally inhabit the gut of poultry, swine or cattle.
# (§2) Two mg/ml solutions of the drugs to be tested are made in 10% v/v ethanol/water. This stock is then diluted to one mg per ml and then further diluted through a series of ten-two fold dilutions. At each concentration an aliquot is placed in a sterile petri plate. Nine volumes of molten agar are then added to each plate, mixed and allowed to harden at room temperature. These plates are then transferred to a Coy chamber and allowed to dry and equilibrate with the oxygen free atmosphere.
# (§3) Organisms used for MIC testing are inoculated into broth media, and incubated 18-24 h at 39° C. prior to use. The cultures are then diluted to equal the turbidity of a 0.5 MacFarland barium sulfate standard, except for the porcine isolates P108-3C1, P105-1C3 and P105-1C4 which are diluted 1:1. All inoculations and dilutions are performed in the anaerobic chamber using broth media and syringe transfer through the butyl robber stoppers.
# (§4) Freshly prepared and diluted cultures are loaded into the wells of a Steers replicator device. This apparatus can dispense ca 10 μl of each of 32 cultures onto the surface of the preincubated agar plates. One hour after the inoculation, the inoculum will have been absorbed and the plates are inverted and incubated at 38°-39° C. for 48 h. Plates are then removed from the chamber and the MIC for the test compounds determined. MIC's are reported as the lowest concentration of a compound which prevented detectable growth of a test organism on the agar plates. […] Thus, each set of test plates yields individual MIC values for each of the 32 test organisms.
# [14] = system: R. amylophilus; conditions: strain H18; for Minimal Inhibitory Concentration (bioactivity data): Table IV (separate study)
# [15] = system: S. hyodysenteriae; design: unit not given here; conditions: Table IV (separate study)
# Protocol: as §1, §2, §3, §4
# [16] = system: B. fibrisolvens; conditions: for M.I.C.: Table III, mass basis, no correction for purity; for Minimal Inhibitory Concentration (bioactivity data): Table IV (separate study)
# [17] = system: B. thetaiotaomicron; conditions: strain UC9014; for Minimal Inhibitory Concentration (bioactivity data): Table IV (separate study)
# Protocol: as §1, §2, §3, §4
# [18] = Table III, mass basis, no correction for purity
smiles,measurement,setting,value
"C=C(NC(=O)C(=C)NC(=O)C(=C)NC(=O)c1ccc2c(n1)-c1coc(n1)C(=C)NC(=O)C(=C)NC(=O)c1nc(oc1C)/C(=C/C)NC(=O)c1csc(n1)C(OC)NC(=O)c1nc(oc1C)/C(=C/C(C)O)NC(=O)[C@H]([C@@H](C)O)NC(=O)c1csc-2n1)C(N)=O (stereo partly shown) [Antibiotic 10381b, sulfomycin I, reference compound]",M.I.C.,[1]; strain FN4070,50.0 µg/mL
same,Minimal Inhibitory Concentration (bioactivity data),[1]; strain FN4070,100
same,M.I.C.,[1]; strain FN5052,100.0 µg/mL
same,Minimal Inhibitory Concentration (bioactivity data),[1]; strain FN5052,100
same,M.I.C.,[2]; [18],25.0 µg/mL
same,Minimal Inhibitory Concentration (bioactivity data),[2],50.0
same,M.I.C.,[3]; strain 71A02,1.6 µg/mL
same,Minimal Inhibitory Concentration (bioactivity data),[3]; strain 71A02,< 0.2
same,M.I.C.,[3]; strain A82-1,3.1 µg/mL
same,Minimal Inhibitory Concentration (bioactivity data),[3]; strain A82-1,12.5
same,M.I.C.,[3]; strain A83-3,3.1 µg/mL
same,Minimal Inhibitory Concentration (bioactivity data),[3]; strain A83-3,< 0.2
same,M.I.C.,[3]; strain A83-RKP,0.8 µg/mL
same,Minimal Inhibitory Concentration (bioactivity data),[3]; strain A83-RKP,0.8
same,M.I.C.,[3]; strain CCS1-11,6.3 µg/mL
same,Minimal Inhibitory Concentration (bioactivity data),[3]; strain CCS1-11,< 0.2
same,M.I.C.,[3]; strain CCS2-09,0.8 µg/mL
same,Minimal Inhibitory Concentration (bioactivity data),[3]; strain CCS2-09,0.8
same,M.I.C.,[3]; strain P1051C3,50.0 µg/mL
same,Minimal Inhibitory Concentration (bioactivity data),[3]; strain P1051C3,12.5
same,M.I.C.,[3]; strain P1083C1,0.4 µg/mL
same,Minimal Inhibitory Concentration (bioactivity data),[3]; strain P1083C1,1.6
same,M.I.C.,[3]; strain RF1B04,0.4 µg/mL
same,Minimal Inhibitory Concentration (bioactivity data),[3]; strain RF1B04,< 0.2
same,M.I.C.,[3]; strain UC9452,3.1 µg/mL
same,Minimal Inhibitory Concentration (bioactivity data),[3]; strain UC9452,1.6
same,M.I.C.,[4]; [18],< 0.2 µg/mL
same,Minimal Inhibitory Concentration (bioactivity data),[4],< 0.2
same,M.I.C.,[5]; strain C94,0.8 µg/mL
same,Minimal Inhibitory Concentration (bioactivity data),[5]; strain C94,0.8
same,M.I.C.,[5]; strain FD1,1.6 µg/mL
same,Minimal Inhibitory Concentration (bioactivity data),[5]; strain FD1,1.6
same,M.I.C.,[6]; [18],3.1 µg/mL
same,Minimal Inhibitory Concentration (bioactivity data),[6],0.8
same,M.I.C.,[7]; strain GA31,100.0 µg/mL
same,Minimal Inhibitory Concentration (bioactivity data),[7]; strain GA31,0.8
same,M.I.C.,[7]; strain GA192,> 100.0 µg/mL
same,Minimal Inhibitory Concentration (bioactivity data),[7]; strain GA192,1.6
same,M.I.C.,[8]; [18],> 100.0 µg/mL
same,Minimal Inhibitory Concentration (bioactivity data),[8],> 100
same,Minimal Inhibitory Concentration (bioactivity data),[9],< 0.2
same,M.I.C.,[10],0.4 µg/mL
same,M.I.C.,[11]; strain 71A01,25.0 µg/mL
same,Minimal Inhibitory Concentration (bioactivity data),[11]; strain 71A01,12.5
same,M.I.C.,[11]; strain CCS1-03,12.5 µg/mL
same,Minimal Inhibitory Concentration (bioactivity data),[11]; strain CCS1-03,6.3
same,M.I.C.,[11]; strain P1051C4,12.5 µg/mL
same,Minimal Inhibitory Concentration (bioactivity data),[11]; strain P1051C4,3.1
same,M.I.C.,[12]; [18],1.6 µg/mL
same,Minimal Inhibitory Concentration (bioactivity data),[12],1.6
same,in vitro activity ranking of the individual components,[13],second most active
same,M.I.C.,[14]; [18],> 100.0 µg/mL
same,Minimal Inhibitory Concentration (bioactivity data),[14],1.6
same,Minimal Inhibitory Concentration (bioactivity data),[15]; strain 16-4,> 100
same,Minimal Inhibitory Concentration (bioactivity data),[15]; strain B204,> 100
same,M.I.C.,[16]; strain 49,6.3 µg/mL
same,Minimal Inhibitory Concentration (bioactivity data),[16]; strain 49,1.6
same,M.I.C.,[16]; strain D1,0.8 µg/mL
same,Minimal Inhibitory Concentration (bioactivity data),[16]; strain D1,0.8
same,M.I.C.,[17]; [18],12.5 µg/mL
same,Minimal Inhibitory Concentration (bioactivity data),[17],25.0
C=C(NC(=O)C(=C)NC(=O)C(=C)NC(=O)c1ccc2c(n1)-c1coc(n1)C(=C)NC(=O)C(=C)NC(=O)c1nc(oc1C)C(=CC)NC(=O)c1csc(n1)CNC(=O)c1nc(oc1C)C(=CC(C)O)NC(=O)C(C(C)O)NC(=O)c1csc-2n1)C(N)=O (stereo not shown) [Antibiotic 10381pre-b],Minimal Inhibitory Concentration (bioactivity data),[1]; strain FN4070,> 100
same,Minimal Inhibitory Concentration (bioactivity data),[1]; strain FN5052,> 100
same,Minimal Inhibitory Concentration (bioactivity data),[2],> 100
same,Minimal Inhibitory Concentration (bioactivity data),[3]; strain A82-1,> 100
same,Minimal Inhibitory Concentration (bioactivity data),[3]; strain A83-3,1.6
same,Minimal Inhibitory Concentration (bioactivity data),[3]; strain A83-RKP,1.6
same,Minimal Inhibitory Concentration (bioactivity data),[3]; strain CCS2-09,50.0
same,Minimal Inhibitory Concentration (bioactivity data),[3]; strain P1051C3,> 100
same,Minimal Inhibitory Concentration (bioactivity data),[3]; strain P1083C1,25.0
same,Minimal Inhibitory Concentration (bioactivity data),[3]; strain RF1B04,1.6
same,Minimal Inhibitory Concentration (bioactivity data),[3]; strain UC9452,25.0
same,Minimal Inhibitory Concentration (bioactivity data),[4],< 0.2
same,Minimal Inhibitory Concentration (bioactivity data),[5]; strain C94,25.0
same,Minimal Inhibitory Concentration (bioactivity data),[5]; strain FD1,25.0
same,Minimal Inhibitory Concentration (bioactivity data),[6],50.0
same,Minimal Inhibitory Concentration (bioactivity data),[7]; strain GA31,50.0
same,Minimal Inhibitory Concentration (bioactivity data),[7]; strain GA192,6.3
same,Minimal Inhibitory Concentration (bioactivity data),[8],> 100
same,Minimal Inhibitory Concentration (bioactivity data),[9],< 0.2
same,Minimal Inhibitory Concentration (bioactivity data),[11]; strain 71A01,> 100
same,Minimal Inhibitory Concentration (bioactivity data),[11]; strain CCS1-03,> 100
same,Minimal Inhibitory Concentration (bioactivity data),[11]; strain P1051C4,> 100
same,Minimal Inhibitory Concentration (bioactivity data),[12],> 100
same,in vitro activity ranking of the individual components,[13],considerably less active
same,Minimal Inhibitory Concentration (bioactivity data),[14],> 100
same,Minimal Inhibitory Concentration (bioactivity data),[15]; strain 16-4,> 100
same,Minimal Inhibitory Concentration (bioactivity data),[15]; strain B204,> 100
same,Minimal Inhibitory Concentration (bioactivity data),[16]; strain 49,50.0
same,Minimal Inhibitory Concentration (bioactivity data),[16]; strain D1,12.5
same,Minimal Inhibitory Concentration (bioactivity data),[17],> 100
